23 molecules from PubChem BioAssay AID330 (DTP/NCI, 2004) can be followed below.

This test has as its system P388 leukemia ip, CD2F1 mice, survival T/C. The test can be described thus: NCI In Vivo Anticancer Drug Screen. Data for tumor model P388 Leukemia (intraperitoneal) in CD2F1 (CDF1) mice. Conditions: endpoint: median survival time, higher = longer survival. The essentials: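 Mice carrying the transplanted tumor received test compound or vehicle. Survival was recorded in each group, and the value is the treated-group measurement divided by that of the vehicle-treated control group.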

[1] abbreviates: dose: 50.0 mg/kg/injection, schedule: Q01DX009 (ip), vehicle: saline with Tween-80.
Setting [2] is: dose: 60.0 mg/kg/injection, schedule: Q01DX005 (ip), vehicle: saline with Tween-80.
[3] abbreviates: dose: 120.0 mg/kg/injection, schedule: Q01DX005 (ip), vehicle: saline with Tween-80.
The mark [4] stands for this setting: dose: 50.0 mg/kg/injection, schedule: Q01DX005 (ip), vehicle: Klucel (hydroxypropylcellulose) (HPC).
Setting [5] is: dose: 100.0 mg/kg/injection, schedule: Q01DX005 (ip), vehicle: Klucel (hydroxypropylcellulose) (HPC).
Where [6] appears, read: dose: 200.0 mg/kg/injection, schedule: Q01DX005 (ip), vehicle: Klucel (hydroxypropylcellulose) (HPC).
The mark [7] stands for this setting: dose: 25.0 mg/kg/injection, schedule: Q01DX005 (ip), vehicle: Klucel (hydroxypropylcellulose) (HPC).
Setting [8] is: dose: 50.0 mg/kg/injection, schedule: Q01DX005 (ip), vehicle: saline with Tween-80.
Where [9] appears, read: dose: 100.0 mg/kg/injection, schedule: Q01DX005 (ip), vehicle: saline with Tween-80.
[10] abbreviates: dose: 200.0 mg/kg/injection, schedule: Q01DX005 (ip), vehicle: saline with Tween-80.
Setting [11] is: dose: 50.0 mg/kg/injection, schedule: Q01DX009 (ip), vehicle: Klucel (hydroxypropylcellulose) (HPC).
Setting [12] is: dose: 100.0 mg/kg/injection, schedule: Q01DX009 (ip), vehicle: Klucel (hydroxypropylcellulose) (HPC).
The mark [13] stands for this setting: dose: 200.0 mg/kg/injection, schedule: Q01DX009 (ip), vehicle: Klucel (hydroxypropylcellulose) (HPC).

Molecules are shown by their SMILES. “And” between values parts separate entries of the source, which are not always exact repeats. Equal entries are not always repeated. Toxic doses and inconclusive results are not listed.

Turning to `COc1cc2c(c(OC)c1OC)-c1cc3c(cc1[C@@H](OC(C)=O)[C@@H]1COC(=O)[C@H]1C2)OCO3`, the T/C (dose: 1.25 mg/kg/injection, schedule: Q01DX009 (ip), vehicle: Klucel (hydroxypropylcellulose) (HPC)) is 100 % of control; the T/C (dose: 2.5 mg/kg/injection, schedule: Q01DX009 (ip), vehicle: Klucel (hydroxypropylcellulose) (HPC)) is 111 % of control; the T/C (dose: 5.0 mg/kg/injection, schedule: Q01DX009 (ip), vehicle: Klucel (hydroxypropylcellulose) (HPC)) is 95 % of control; the T/C (dose: 10.0 mg/kg/injection, schedule: Q01DX009 (ip), vehicle: Klucel (hydroxypropylcellulose) (HPC)) was 97 % of control.
Regarding `NN1C(=O)c2ccccc2C1=O`, the T/C is 96 % of control under setting [1]; 112 % of control (dose: 100.0 mg/kg/injection, schedule: Q01DX009 (ip), vehicle: saline with Tween-80); 95 % of control (dose: 200.0 mg/kg/injection, schedule: Q01DX009 (ip), vehicle: saline with Tween-80); 99 % of control (dose: 400.0 mg/kg/injection, schedule: Q01DX009 (ip), vehicle: saline with Tween-80).
Turning to `COC1CC(O)OC1C(NC(C)=O)SC12CC3CC(CC(C3)C1)C2` (stereo unspecified), the T/C by setting is: (dose: 100.0 mg/kg/injection, schedule: Q04DX003 (ip), vehicle: Klucel (hydroxypropylcellulose) (HPC)) 104 % of control; (dose: 200.0 mg/kg/injection, schedule: Q04DX003 (ip), vehicle: Klucel (hydroxypropylcellulose) (HPC)) 106 % of control; (dose: 400.0 mg/kg/injection, schedule: Q04DX003 (ip), vehicle: Klucel (hydroxypropylcellulose) (HPC)) 104 % of control.
Take `COc1cc(-c2[o+]c3cc(O)cc(O)c3cc2OC2OC(CO)C(O)C(O)C2O)cc(OC)c1O` (stereo unspecified): the T/C (dose: 25.0 mg/kg/injection, schedule: Q01DX009 (ip), vehicle: saline sonified) was 100 % of control; the T/C (dose: 50.0 mg/kg/injection, schedule: Q01DX009 (ip), vehicle: saline sonified) is 100 % of control; the T/C (dose: 100.0 mg/kg/injection, schedule: Q01DX009 (ip), vehicle: saline sonified) was 100 % of control.
For the molecule `Clc1ccc(NCNC2Nc3ccccc3N2)cc1Cl`, the T/C reads like this: under setting [2], 94 % of control; under setting [3], 93 % of control.
`Nc1cccc[n+]1CCCCCC[n+]1ccccc1N`: the T/C is 102 % of control (dose: 3.13 mg/kg/injection, schedule: Q01DX009 (ip), vehicle: saline) and 103 % of control (dose: 6.25 mg/kg/injection, schedule: Q01DX009 (ip), vehicle: saline).
`COC1(OC)C=NNc2ncnn21`: the T/C runs as follows: (dose: 60.0 mg/kg/injection, schedule: Q01DX005 (ip), vehicle: saline) 103 % of control; (dose: 120.0 mg/kg/injection, schedule: Q01DX005 (ip), vehicle: saline) 104 % of control; (dose: 240.0 mg/kg/injection, schedule: Q01DX005 (ip), vehicle: saline) 105 % of control.
With `COC1=C(OC)S[C@H]2C3CC([C@H]2S1)[C@@H]1SC(OC)=C(OC)S[C@H]31`, the T/C under setting [4] is 97 % of control, the T/C under setting [5] was 97 % of control and the T/C under setting [6] was 98 % of control.
In the case of `CCN(CC)c1ccc(NC(C(=O)c2ccccc2)c2ccccc2)cc1` (stereo unspecified), the T/C is 104 % of control and 109 % of control (dose: 3.12 mg/kg/injection, schedule: Q01DX005 (ip), vehicle: Klucel (hydroxypropylcellulose) (HPC)); 103 % of control and 109 % of control and 96 % of control (dose: 6.25 mg/kg/injection, schedule: Q01DX005 (ip), vehicle: Klucel (hydroxypropylcellulose) (HPC)); 104 % of control and 121 % of control and 96 % of control (dose: 12.5 mg/kg/injection, schedule: Q01DX005 (ip), vehicle: Klucel (hydroxypropylcellulose) (HPC)); 112 % of control and 95 % of control under setting [7].
`CC(=O)NC1=NN(C(C)=O)C(C)(c2ccccc2)S1=O` (stereo unspecified): the T/C is 103 % of control under setting [8], 107 % of control under setting [9] and 101 % of control under setting [10].
For `CC(=O)N1C(=O)c2ccccc2NC1(C)c1ccncc1` (stereo unspecified), the T/C under setting [7] was 100 % of control, the T/C under setting [4] is 101 % of control, the T/C under setting [5] is 107 % of control and the T/C under setting [6] was 106 % of control.
`C/C(=N\NC(=O)c1ccccc1)C(=O)O`: the T/C by setting is: (dose: 100.0 mg/kg/injection, schedule: Q04DX002 (ip), vehicle: Klucel (hydroxypropylcellulose) (HPC)) 106 % of control; (dose: 200.0 mg/kg/injection, schedule: Q04DX002 (ip), vehicle: Klucel (hydroxypropylcellulose) (HPC)) 100 % of control; (dose: 400.0 mg/kg/injection, schedule: Q04DX002 (ip), vehicle: Klucel (hydroxypropylcellulose) (HPC)) 99 % of control.
Consider `Cc1nc(-c2ccccc2)oc1C(N)=O`, for which the T/C reads like this: under setting [11], 108 % of control; under setting [12], 110 % of control.
As for `c1ccc2sc(NC(Nc3nc4ccccc4s3)C34CC5CC(CC(C5)C3)C4)nc2c1`, the T/C was 98 % of control (dose: 12.5 mg/kg/injection, schedule: Q01DX009 (ip), vehicle: saline with Tween-80); 98 % of control (dose: 25.0 mg/kg/injection, schedule: Q01DX009 (ip), vehicle: saline with Tween-80); 91 % of control and 96 % of control under setting [1].
Turning to `O=C(O)CCSSCCCCCS(=O)O`, the T/C (dose: 50.0 mg/kg/injection, schedule: Q01DX005 (ip), vehicle: saline) is 100 % of control; the T/C (dose: 100.0 mg/kg/injection, schedule: Q01DX005 (ip), vehicle: saline) is 104 % of control; the T/C (dose: 200.0 mg/kg/injection, schedule: Q01DX005 (ip), vehicle: saline) was 104 % of control.
Consider `S=c1nc[nH]c2c1ncn2C1C=CC=CC=C1`, for which the T/C under setting [8] was 110 % of control and the T/C under setting [9] was 106 % of control.
Consider `COc1ccc(C(C)(C)c2cc3c(cc2OC)OCO3)cc1`, for which the T/C is 104 % of control under setting [2] and 116 % of control under setting [3].
Turning to `CC(=O)OC1C=CC(SC23CC4CC(CC(C4)C2)C3)N(C(C)=O)C1SC12CC3CC(CC(C3)C1)C2` (stereo unspecified), the T/C was 103 % of control under setting [11], 105 % of control under setting [12] and 99 % of control under setting [13].
As to `CN1C2CCC1CC(OC(=O)/C=C/C(=O)OC1CC3CCC(C1)N3C)C2` (stereo unspecified), the T/C (dose: 60.0 mg/kg/injection, schedule: Q01DX005 (ip), vehicle: suspension in saline) is 91 % of control and the T/C (dose: 120.0 mg/kg/injection, schedule: Q01DX005 (ip), vehicle: suspension in saline) is 91 % of control.
In the case of `O=C(c1cc(Nc2ccnc3cc(Cl)ccc23)ccc1O)N1CCCCC1`, the T/C reads like this: under setting [9], 120 % of control; under setting [10], 121 % of control.
Consider `Clc1cc(CBr)c(CBr)cc1Cl`, for which the T/C runs as follows: (dose: 3.13 mg/kg/injection, schedule: Q01DX009 (ip), vehicle: saline with Tween-80) 95 % of control; (dose: 6.25 mg/kg/injection, schedule: Q01DX009 (ip), vehicle: saline with Tween-80) 100 % of control; (dose: 12.5 mg/kg/injection, schedule: Q04DX003 (ip), vehicle: saline with Tween-80) 113 % of control; (dose: 25.0 mg/kg/injection, schedule: Q04DX003 (ip), vehicle: saline with Tween-80) 109 % of control.
`S=C(NCCCCCCNC(=S)Nc1ccc2ccccc2n1)Nc1ccc2ccccc2n1`: the T/C runs as follows: under setting [11], 100 % of control; under setting [12], 97 % of control; under setting [13], 91 % of control.
With `N#Cc1c(C(=O)NOCCCc2ccccc2)cc(-c2ccc(F)cc2)[nH]c1=O`, the T/C by setting is: under setting [2], 107 % of control; under setting [3], 103 % of control.
